# Entries after “also recorded” stand apart in the source; their conditions may differ. Where a SMILES comes first, the peptide text is derived from it. Bridges are numbered along the chain shown (N, C = ends).
# Target: T1, Shaker IR (Drosophila melanogaster, UniProt P08510, DEL6-46)
# T1 construct: expressed in transfected cells; host or cells: Xenopus laevis oocytes injected with cRNA
# Experiment: Current-voltage (I-V) experiments, voltage dependence and reversibility on Shaker IR
# Type: cell-based, insect
# Description: In order to elucidate whether BcsTx-1 and -2 block the current through a physical obstruction of the Shaker IR channel pore or act as gating modifiers, current-voltage (I-V) experiments were performed. The currents were inhibited at the test potentials from −90 to 100 mV, and the inhibition was not associated with a change of the shape of the I-V relationship. The control curve and the curve in the presence of BcsTx1 (500 nM) were characterized by a V1/2 values of 20.85 ± 0.69 mV and 22.62 ± 0.73 mV, respectively. Moreover, the control curve and the curve in the presence of BcsTx2 (50 nM) were characterized by a V1/2 values of 18.49 ± 1.49 mV and 23.88 ± 1.57 mV, respectively. […] To date, type 1 sea anemone toxins have been described to act solely through a KV channel pore-blocking mechanism.
# Figure 8 Functional features of BcsTx1 and BcsTx2 on KV channels. (A, B) Dose-response curves of BcsTx1 and BcsTx2 on rKV1.1, rKV1.2, hKV1.3, rKV1.6 and Shaker IR channels. The curves were obtained by plotting the percentage blocked current as a function of increasing toxin concentrations. All data are presented as the mean ± standard error (n ≥ 3). (C, D) Current-voltage relationship for Shaker IR isoform in control condition and in the presence of BcsTx1 (500 nM) and BcsTx2 (50 nM). Current traces were evoked by 10 mV depolarization steps from a holding potential of −90 mV. Open circles indicates the V1/2 in control; closed circles indicate the addition of toxins. (E, F) Percentage of currents left after application of BcsTx1 (500 nM) and BcsTx2 (50 nM) on Shaker IR channel. […] (G, H) Representative experiment of the time course of Shaker IR current inhibition with BcsTx1 (500 nM) and BcsTx2 (3000 nM) and the reversibility hereof. Control (open square); washout (open circles). […] Plots shown are a representative of at least three individual experiments.
# Stage V–VI of X. laevis oocytes were harvested by partial ovariectomy under anesthesia (3-aminobenzoic acid ethyl ester methanesulfonate salt, 0.5 g/L from Sigma-Aldrich Co., Saint Louis, MO, USA). The oocytes were defolliculated for 2 h by treatment with 2 mg/mL collagenase (Sigma-Aldrich Co., Saint Louis, MO, USA) in Ca^2+ free ND96 solution (in mM: 96 NaCl; 2 KCl; 1 MgCl2; 5 HEPES adjusted pH 7.4). […]
# Two-electrode voltage-clamp recordings were performed at room temperature (18–22 °C) using a Geneclamp 500 amplifier (Molecular Devices, Sunnyvale, CA, USA) controlled by a pClamp data acquisition system (Axon Instruments, Union City, CA, USA). Whole-cell currents from oocytes were recorded from 1 to 3 days after injection. […]
# T1 sequence (P08510 with tags, fused parts or gaps DEL6-46): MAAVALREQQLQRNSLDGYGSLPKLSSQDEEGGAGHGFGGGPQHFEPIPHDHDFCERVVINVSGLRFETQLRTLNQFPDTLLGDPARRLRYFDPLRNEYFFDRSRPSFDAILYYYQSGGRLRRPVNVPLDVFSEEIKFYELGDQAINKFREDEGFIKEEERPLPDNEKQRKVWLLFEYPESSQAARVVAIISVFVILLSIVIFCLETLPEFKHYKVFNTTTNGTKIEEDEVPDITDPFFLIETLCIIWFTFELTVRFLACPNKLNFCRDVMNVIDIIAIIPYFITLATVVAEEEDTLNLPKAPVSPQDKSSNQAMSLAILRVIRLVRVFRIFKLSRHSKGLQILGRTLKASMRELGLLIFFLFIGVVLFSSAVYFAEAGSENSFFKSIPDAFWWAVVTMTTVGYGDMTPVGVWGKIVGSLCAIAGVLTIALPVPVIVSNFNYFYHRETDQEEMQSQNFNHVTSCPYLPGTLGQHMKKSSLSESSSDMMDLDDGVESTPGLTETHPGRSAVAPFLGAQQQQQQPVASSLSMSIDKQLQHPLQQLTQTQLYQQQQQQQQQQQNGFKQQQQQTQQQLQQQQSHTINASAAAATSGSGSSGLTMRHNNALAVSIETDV
compound,measurement,setting,value
"CC(C)C[C@@H]1NC(=O)[C@H](CCCCN)NC(=O)[C@H](C)NC(=O)[C@H](Cc2c[nH]cn2)NC(=O)[C@H](CCC(N)=O)NC(=O)[C@@H]2CSSC[C@@H]3NC(=O)[C@H](CC(N)=O)NC(=O)[C@H](C)NC(=O)[C@H](CCCNC(=N)N)NC(=O)[C@H](Cc4ccc(O)cc4)NC(=O)[C@H](CCCCN)NC(=O)[C@H](CCC(N)=O)NC(=O)[C@H](CO)NC(=O)[C@H](CC(N)=O)NC(=O)[C@H](CCCCN)NC(=O)[C@H](CSSC[C@H](NC(=O)[C@H]([C@@H](C)O)NC(=O)[C@H](CCCCN)NC(=O)[C@H](C)NC3=O)C(=O)NCC(=O)N3CCC[C@H]3C(=O)N[C@H](C(=O)O)CSSC[C@H](NC(=O)[C@H](C)N)C(=O)N[C@@H](CCCCN)C(=O)N[C@@H](CC(=O)O)C(=O)NCC(=O)N[C@@H](Cc3ccccc3)C(=O)N3CCC[C@H]3C(=O)N[C@@H]([C@@H](C)O)C(=O)N[C@@H](C)C(=O)N[C@@H]([C@@H](C)O)C(=O)N2)NC(=O)[C@H](CC(N)=O)NC(=O)CNC(=O)[C@H](C(C)C)NC1=O [BcsTx2] (H-ACKDGFPTATCQHAKLVGNCKNSQKYRANCAKTCGPC-OH; disulfide 2-37, 11-30, 20-34; C-terminus assumed)",reversibility of blockage upon washout (in words),"Shaker IR, BcsTx1 500 nM, BcsTx2 3000 nM, washout","reversible, and a complete recovery was observed after washout; also recorded: binding was reversible upon washout"
same,onset of blockage (in words),"Shaker IR, time course, BcsTx1 500 nM, BcsTx2 3000 nM",Blockage occurred rapidly
same,voltage dependence of blockage (in words),"Shaker IR, −10 mV to 50 mV, BcsTx1 500 nM, BcsTx2 50 nM",non-dependence of voltage for the blockage; also recorded: no difference was observed in the degree of BcsTx1- and BcsTx2-induced blockage
same,"V1/2 of activation, Shaker IR","in presence of 50 nM toxin, control 18.49 ± 1.49 mV, Boltzmann fit",23.88 ± 1.57 mV
